Measured values from PMC5424254, “Growth Trade-Offs Accompany the Emergence of Glycolytic Metabolism in Shewanella oneidensis MR-1” (Journal of Bacteriology, 2017).

Biological target: T1, NagK (GlcNAc kinase) (Shewanella oneidensis, UniProt Q8EBK6)
T1 sequence (Q8EBK6 2-300): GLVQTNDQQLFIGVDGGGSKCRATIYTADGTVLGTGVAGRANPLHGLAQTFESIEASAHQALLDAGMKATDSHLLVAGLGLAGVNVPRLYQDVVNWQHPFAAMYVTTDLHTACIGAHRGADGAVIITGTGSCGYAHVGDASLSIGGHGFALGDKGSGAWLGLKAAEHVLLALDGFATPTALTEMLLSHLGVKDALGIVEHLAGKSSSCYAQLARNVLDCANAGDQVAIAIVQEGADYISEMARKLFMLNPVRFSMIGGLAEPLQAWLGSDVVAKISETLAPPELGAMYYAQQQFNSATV
Test: ADP-Glo kinase assay (luminescence)
Format: biochemical
Settings: ATP; 40 mM Tris-HCl, 20 mM MgCl2, 0.1 mg/ml BSA; 0.1 to 1 mM substrate

CC(=O)N[C@H]1C(O)O[C@H](CO)[C@@H](O)[C@@H]1O (stereo partly shown) [GlcNAc, N-acetylglucosamine]
ADP-Glo kinase assay (luminescence): NagK is able to phosphorylate glucose in addition to its known substrate, GlcNAc
